Experimental data: patent US8143256B2, “Cyclic amide and ester pyrazinoylguanidine sodium channel blockers” (Parion Sciences, Inc., priority 2004, dated 2012)

## N=C(NCCCCN1CCC(CCCC(N)=O)CC1)NC(=O)c1nc(Cl)c(N)nc1N [Example 1, 4-(1-{4-[N′-(3,5-diamino-6-chloropyrazine-2-carbonyl)guanidino]-butyl}piperidin-4-yl)butyramide]
  melting point: 143 to 147 °C
